Laboratory results as given in publication PMC12472352, “The Activation of Cytochrome P450 2C9 Is Facilitated by the Coenzyme Forms of Vitamin B2” (Molecules, 2025).

Columns and labels:
[1] = target: T1, cytochrome P450 2C9 (CYP2C9) (Homo sapiens, UniProt P11712); test: UV-vis absorption spectral titration (Soret peak) of purified recombinant CYP2C9; also electrochemical activation; format: binding
[2] = target: T1, cytochrome P450 2C9 (CYP2C9); test: electrochemical diclofenac […]'-hydroxylation by purified CYP2C9 with FMN ([…]); relative activity […]; format: biochemical
[3] = target: T1, cytochrome P450 2C9 (CYP2C9); test: amperometric titration (KM) on CYP2C9 + FMN electrode; […]'-hydroxydiclofenac formation by square-wave voltammetry; format: biochemical

T1 sequence (P11712 whole entry): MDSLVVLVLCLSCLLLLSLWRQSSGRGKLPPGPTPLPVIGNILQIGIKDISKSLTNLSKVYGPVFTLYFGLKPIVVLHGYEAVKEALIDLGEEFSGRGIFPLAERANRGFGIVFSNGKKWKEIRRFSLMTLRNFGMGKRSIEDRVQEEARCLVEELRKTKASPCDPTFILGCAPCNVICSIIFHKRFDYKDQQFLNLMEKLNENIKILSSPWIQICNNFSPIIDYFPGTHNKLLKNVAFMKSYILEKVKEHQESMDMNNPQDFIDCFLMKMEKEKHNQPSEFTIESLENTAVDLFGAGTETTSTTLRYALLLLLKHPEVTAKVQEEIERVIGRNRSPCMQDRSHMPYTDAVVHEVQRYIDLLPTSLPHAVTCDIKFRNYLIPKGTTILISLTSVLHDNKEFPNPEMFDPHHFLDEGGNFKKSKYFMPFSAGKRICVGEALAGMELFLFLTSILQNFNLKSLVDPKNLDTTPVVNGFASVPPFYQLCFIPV

Cc1cc2nc3c(=O)[nH]c(=O)nc-3n(C[C@H](O)[C@H](O)[C@H](O)COP(=O)(O)OP(=O)(O)OC[C@H]3O[C@@H](n4cnc5c(N)ncnc54)[C@H](O)[C@@H]3O)c2cc1C [FAD]
Kd [1]: 174 ± 52 µM

Cc1cc2nc3c(=O)[nH]c(=O)nc-3n(C[C@H](O)[C@H](O)[C@H](O)COP(=O)(O)O)c2cc1C [FMN]
Relative Activity, % [2]: 113 ± 6%

O=C(O)Cc1ccccc1Nc1c(Cl)cccc1Cl [diclofenac, 2-[2-(2,6-dichloroanilino)-phenyl]acetic acid]
KM, M [3]: (5.49 ± 0.52) ×10^−5 M
